Source: PubChem BioAssay AID212 (DTP/NCI, 2004)
“And” between values parts separate entries of the source, which are not always exact repeats. Equal values may be shown once. Inconclusive results are not listed.

System: BDF1 mice, colon carcinoma 38 sc, T/C %
Assay: NCI In Vivo Anticancer Drug Screen. Data for tumor model Colon Carcinoma 38 (subcutaneous) in B6D2F1 (BDF1) mice
How it was run: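 Mice with transplanted tumors are treated with compound or vehicle. Survival or tumor size is then measured in both groups. The ratio of treated to control gives the reported figure.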

[1] = endpoint: median tumor weight (est.), dose: 12.5 mg/kg/injection, schedule: Q07DX002 (ip), vehicle: Klucel (hydroxypropylcellulose) (HPC), higher = larger tumour
[2] = endpoint: median tumor weight (est.), dose: 50.0 mg/kg/injection, schedule: Q07DX002 (ip), vehicle: Klucel (hydroxypropylcellulose) (HPC), higher = larger tumour
[3] = endpoint: median tumor weight (est.), dose: 100.0 mg/kg/injection, schedule: Q07DX002 (ip), vehicle: Klucel (hydroxypropylcellulose) (HPC), higher = larger tumour
[4] = endpoint: median tumor weight (est.), dose: 200.0 mg/kg/injection, schedule: Q07DX002 (ip), vehicle: Klucel (hydroxypropylcellulose) (HPC), higher = larger tumour

Cc1ccc(S(=O)(=O)N/N=C/C(=O)O)cc1
T/C (endpoint: median tumor weight (est.), dose: 12.5 mg/kg/injection, schedule: Q07DX002 (ip), vehicle: other, higher = larger tumour): 116 % of control | T/C (endpoint: median tumor weight (est.), dose: 25.0 mg/kg/injection, schedule: Q07DX002 (ip), vehicle: other, higher = larger tumour): 165 % of control | T/C (endpoint: median tumor weight (est.), dose: 50.0 mg/kg/injection, schedule: Q07DX002 (ip), vehicle: other, higher = larger tumour): 75 % of control | T/C (endpoint: median tumor weight (est.), dose: 100.0 mg/kg/injection, schedule: Q07DX002 (ip), vehicle: other, higher = larger tumour): 90 % of control | T/C (endpoint: median tumor weight (est.), dose: 200.0 mg/kg/injection, schedule: Q07DX002 (ip), vehicle: other, higher = larger tumour): 178 % of control

O=C(O)Cc1cccc2c(=O)cc(-c3ccc4ccccc4c3)oc12
T/C (endpoint: median tumor weight (est.), dose: 100.0 mg/kg/injection, schedule: Q07DX002 (ip), vehicle: saline, higher = larger tumour): 104 % of control | T/C (endpoint: median tumor weight (est.), dose: 200.0 mg/kg/injection, schedule: Q07DX002 (ip), vehicle: saline, higher = larger tumour): 59 % of control

N[C@H](C(=O)O)[C@@H]1CC(Cl)=NO1
T/C (endpoint: median survival time, dose: 25.9 mg/kg/injection, schedule: Q04DX002 (ip), vehicle: suspension in saline, higher = longer survival): 113 % of control | T/C (endpoint: median survival time, dose: 43.2 mg/kg/injection, schedule: Q04DX002 (ip), vehicle: suspension in saline, higher = longer survival): 122 % of control | T/C (endpoint: median survival time, dose: 72.0 mg/kg/injection, schedule: Q04DX002 (ip), vehicle: suspension in saline, higher = longer survival): 114 % of control | T/C (endpoint: median survival time, dose: 200.0 mg/kg/injection, schedule: Q04DX002 (ip), vehicle: suspension in saline, higher = longer survival): 119 % of control | T/C (endpoint: median tumor weight (est.), dose: 1.0 mg/kg/injection, schedule: Q07DX003 (ip), vehicle: saline, higher = larger tumour): 114 % of control | T/C (endpoint: median tumor weight (est.), dose: 2.0 mg/kg/injection, schedule: Q07DX003 (ip), vehicle: saline, higher = larger tumour): 71 % of control and 79 % of control | T/C (endpoint: median tumor weight (est.), dose: 4.0 mg/kg/injection, schedule: Q07DX003 (ip), vehicle: saline, higher = larger tumour): 86 % of control | T/C (endpoint: median tumor weight (est.), dose: 8.0 mg/kg/injection, schedule: Q07DX003 (ip), vehicle: saline, higher = larger tumour): 156 % of control | T/C (endpoint: median tumor weight (est.), dose: 16.0 mg/kg/injection, schedule: Q07DX003 (ip), vehicle: saline, higher = larger tumour): 69 % of control | T/C (endpoint: median tumor weight (est.), dose: 32.0 mg/kg/injection, schedule: Q07DX003 (ip), vehicle: saline, higher = larger tumour): 69 % of control | T/C (endpoint: median tumor weight (est.), dose: 64.0 mg/kg/injection, schedule: Q07DX003 (ip), vehicle: saline, higher = larger tumour): 78 % of control

CN(C(=S)S(=O)(=O)C12CC3CC(CC(C3)C1)C2)c1ccccc1
T/C (endpoint: median tumor weight (est.), dose: 3.12 mg/kg/injection, schedule: Q07DX002 (ip), vehicle: Klucel (hydroxypropylcellulose) (HPC), higher = larger tumour): 104 % of control | T/C (endpoint: median tumor weight (est.), dose: 6.25 mg/kg/injection, schedule: Q07DX002 (ip), vehicle: Klucel (hydroxypropylcellulose) (HPC), higher = larger tumour): 92 % of control and 102 % of control | T/C [1]: 116 % of control and 93 % of control | T/C [2]: 101 % of control and 106 % of control | T/C [3]: 115 % of control | T/C [4]: 105 % of control

CC(=O)OCC(=O)[C@@]12OC(C)(C)O[C@@H]1C[C@H]1[C@@H]3CC(C=O)=C4C=C(OCCCl)CC[C@]4(C)[C@@]3(F)[C@@H](O)C[C@@]12C
T/C [1]: 86 % of control | T/C (endpoint: median tumor weight (est.), dose: 12.5 mg/kg/injection, schedule: Q07DX003 (ip), vehicle: Klucel (hydroxypropylcellulose) (HPC), higher = larger tumour): 62 % of control and 76 % of control | T/C (endpoint: median tumor weight (est.), dose: 25.0 mg/kg/injection, schedule: Q07DX002 (ip), vehicle: Klucel (hydroxypropylcellulose) (HPC), higher = larger tumour): 58 % of control | T/C (endpoint: median tumor weight (est.), dose: 25.0 mg/kg/injection, schedule: Q07DX003 (ip), vehicle: Klucel (hydroxypropylcellulose) (HPC), higher = larger tumour): 33 % of control and 57 % of control | T/C [2]: 86 % of control | T/C [3]: 94 % of control | T/C (endpoint: median tumor weight (est.), dose: 100.0 mg/kg/injection, schedule: Q07DX003 (ip), vehicle: Klucel (hydroxypropylcellulose) (HPC), higher = larger tumour): 57 % of control | T/C [4]: 54 % of control | T/C (endpoint: median tumor weight (est.), dose: 200.0 mg/kg/injection, schedule: Q07DX003 (ip), vehicle: Klucel (hydroxypropylcellulose) (HPC), higher = larger tumour): 48 % of control

Cc1ccc(NC(=O)Oc2ccc(Br)cc2Br)c([N+](=O)[O-])c1
T/C (endpoint: median tumor weight (est.), dose: 25.0 mg/kg/injection, schedule: Q07DX002 (ip), vehicle: saline with Tween-80, higher = larger tumour): 111 % of control and 102 % of control | T/C (endpoint: median tumor weight (est.), dose: 50.0 mg/kg/injection, schedule: Q07DX002 (ip), vehicle: saline with Tween-80, higher = larger tumour): 51 % of control and 62 % of control | T/C (endpoint: median tumor weight (est.), dose: 100.0 mg/kg/injection, schedule: Q07DX002 (ip), vehicle: saline with Tween-80, higher = larger tumour): 86 % of control and 94 % of control | T/C (endpoint: median tumor weight (est.), dose: 200.0 mg/kg/injection, schedule: Q07DX002 (ip), vehicle: saline with Tween-80, higher = larger tumour): 65 % of control and 79 % of control

Cc1c(CNc2ccc(C(=O)NC(CC(=O)O)C(=O)O)cc2)ccc2nc(N)nc(N)c12 (centres undefined)
T/C (endpoint: median tumor weight (est.), dose: 1.56 mg/kg/injection, schedule: Q07DX002 (ip), vehicle: saline with Tween-80, higher = larger tumour): 86 % of control | T/C (endpoint: median tumor weight (est.), dose: 1.56 mg/kg/injection, schedule: Q07DX002 (ip), vehicle: saline, higher = larger tumour): 122 % of control | T/C (endpoint: median tumor weight (est.), dose: 3.12 mg/kg/injection, schedule: Q07DX002 (ip), vehicle: saline with Tween-80, higher = larger tumour): 87 % of control | T/C (endpoint: median tumor weight (est.), dose: 3.12 mg/kg/injection, schedule: Q07DX002 (ip), vehicle: saline, higher = larger tumour): 96 % of control | T/C (endpoint: median tumor weight (est.), dose: 6.25 mg/kg/injection, schedule: Q07DX002 (ip), vehicle: saline with Tween-80, higher = larger tumour): 35 % of control | T/C (endpoint: median tumor weight (est.), dose: 6.25 mg/kg/injection, schedule: Q07DX002 (ip), vehicle: saline, higher = larger tumour): 48 % of control | T/C (endpoint: median tumor weight (est.), dose: 12.5 mg/kg/injection, schedule: Q07DX002 (ip), vehicle: saline, higher = larger tumour): 32 % of control
